Reference: patent EP2970215B1, “PYRROLIDINE DERIVATIVES, PHARMACEUTICAL COMPOSITIONS CONTAINING THEM, AND THEIR USE IN THERAPY” (AbbVie Deutschland GmbH & Co. KG, priority 2013, dated 2014)

Molecular target: T1, human GlyT1c transporter (Homo sapiens, UniProt P48067)
T1 construct: expressed in transfected cells; host or cells: CHO cells (recombinant; line hGlyT1c_5_CHO is named for the uptake assay)
T1 sequence (P48067 1-706): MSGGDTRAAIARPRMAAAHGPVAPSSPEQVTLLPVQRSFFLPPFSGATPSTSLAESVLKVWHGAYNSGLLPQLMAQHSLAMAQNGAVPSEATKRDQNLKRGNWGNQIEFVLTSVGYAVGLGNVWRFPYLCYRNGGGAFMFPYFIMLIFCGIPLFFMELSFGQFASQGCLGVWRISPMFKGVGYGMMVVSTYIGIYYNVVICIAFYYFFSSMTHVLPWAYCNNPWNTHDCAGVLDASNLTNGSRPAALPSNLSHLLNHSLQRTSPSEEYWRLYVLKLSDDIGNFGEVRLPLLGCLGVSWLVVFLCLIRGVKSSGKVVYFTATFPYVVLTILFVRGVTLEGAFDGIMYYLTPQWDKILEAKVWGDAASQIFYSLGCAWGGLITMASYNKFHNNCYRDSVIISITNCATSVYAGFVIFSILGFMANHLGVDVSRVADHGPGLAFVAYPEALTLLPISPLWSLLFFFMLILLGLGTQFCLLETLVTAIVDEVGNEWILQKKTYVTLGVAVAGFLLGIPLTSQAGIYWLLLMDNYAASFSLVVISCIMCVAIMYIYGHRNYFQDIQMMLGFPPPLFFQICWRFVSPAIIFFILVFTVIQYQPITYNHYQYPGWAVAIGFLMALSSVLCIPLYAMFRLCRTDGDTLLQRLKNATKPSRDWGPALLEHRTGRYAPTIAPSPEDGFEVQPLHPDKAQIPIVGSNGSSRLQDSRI
Assay: Radioligand binding assay using recombinant CHO cell membranes expressing human GlyT1
Conditions: radioligand binding to human GlyT1c transporter-expressing membranes
Text: 2. Radioligand binding assays using recombinant CHO cell membranes expressing human GlyT1: […]

SMILES	Ki
COCCNC(=O)[C@@H]1CN(S(=O)(=O)c2cn(C)cn2)C[C@H]1c1ccc(F)cc1 [Example 579, (3S,4R)-4-(4-fluorophenyl)-N-(2-methoxyethyl)-1-[(1-methyl-1H-imidazol-4-yl)sulfonyl]pyrrolidine-3-carboxamide]	≤ 10 µM
CCCNC(=O)[C@@H]1CN(S(=O)(=O)c2cn(C)cn2)C[C@H]1c1ccc(F)cc1 [Example 580, (3S,4R)-4-(4-fluorophenyl)-1-[(1-methyl-1H-imidazol-4-yl)sulfonyl]-N-propylpyrrolidine-3-carboxamide]	≤ 1 µM
COCC(C)NC(=O)[C@@H]1CN(S(=O)(=O)c2cn(C)cn2)C[C@H]1c1ccc(F)cc1 (stereo partly drawn) [Example 582, (3S,4R)-4-(4-fluorophenyl)-N-[1-methoxypropan-2-yl]-1-[(1-methyl-1H-imidazol-4-yl)sulfonyl]pyrrolidine-3-carboxamide]	≤ 10 µM
COCCCNC(=O)[C@H]1CN(S(=O)(=O)c2cn(C)cn2)C[C@@H]1c1ccc(F)cc1 [Example 583, (3R,4S)-4-(4-fluorophenyl)-N-(3-methoxypropyl)-1-[(1-methyl-1H-imidazol-4-yl)sulfonyl]pyrrolidine-3-carboxamide]	≤ 10 µM
CCOCCNC(=O)[C@@H]1CN(S(=O)(=O)c2cn(C)cn2)C[C@H]1c1ccc(F)cc1 [Example 584, (3S,4R)-N-(2-ethoxyethyl)-4-(4-fluorophenyl)-1-[(1-methyl-1H-imidazol-4-yl)sulfonyl]pyrrolidine-3-carboxamide]	≤ 10 µM
Cn1cnc(S(=O)(=O)N2C[C@H](Nc3ccc(Cl)c(OC(F)(F)F)c3)[C@@H](c3ccc(F)cc3)C2)c1 [Example 585, (3R,4S)-N-[4-chloro-3-(trifluoromethoxy)phenyl]-4-(4-fluorophenyl)-1-[(1-methyl-1H-imidazol-4-yl)sulfonyl]pyrrolidin-3-amine]	≤ 0.1 µM
Cn1cnc(S(=O)(=O)N2C[C@@H](C(=O)NCC3CC3)[C@H](c3ccc(F)cc3)C2)c1 [Example 586, (3S,4R)-N-(cyclopropylmethyl)-4-(4-fluorophenyl)-1-[(1-methyl-1H-imidazol-4-yl)sulfonyl]pyrrolidine-3-carboxamide]	≤ 1 µM
CC(C)OCCNC(=O)[C@@H]1CN(S(=O)(=O)c2cn(C)cn2)C[C@H]1c1ccc(F)cc1 [Example 587, (3S,4R)-4-(4-fluorophenyl)-1-[(1-methyl-1H-imidazol-4-yl)sulfonyl]-N-[2-(propan-2-yloxy)ethyl]pyrrolidine-3-carboxamide]	≤ 10 µM
COCCCN[C@H]1CN(S(=O)(=O)c2cn(C)cn2)C[C@@H]1c1ccccc1 [Example 588, (3R,4S)-N-(3-methoxypropyl)-1-[(1-methyl-1H-imidazol-4-yl)sulfonyl]-4-phenylpyrrolidin-3-amine]	≤ 10 µM
CCOCCCN[C@H]1CN(S(=O)(=O)c2cn(C)cn2)C[C@@H]1c1ccccc1 [Example 589, (3R,4S)-N-(3-ethoxypropyl)-1-[(1-methyl-1H-imidazol-4-yl)sulfonyl]-4-phenylpyrrolidin-3-amine]	≤ 1 µM
COCC1(CN[C@H]2CN(S(=O)(=O)c3cn(C)cn3)C[C@@H]2c2ccccc2)CC1 [Example 590, (3R,4S)-N-{[1-(methoxymethyl)cyclopropyl]methyl}-1-[(1-methyl-1H-imidazol-4-yl)sulfonyl]-4-phenylpyrrolidin-3-amine]	≤ 10 µM
COCCN[C@H]1CN(S(=O)(=O)c2cn(C)cn2)C[C@@H]1c1ccccc1 [Example 600, (3R,4S)-N-(2-methoxyethyl)-1-[(1-methyl-1H-imidazol-4-yl)sulfonyl]-4-phenylpyrrolidin-3-amine]	≤ 10 µM
COc1nc(N[C@H]2CN(S(=O)(=O)c3cn(C)cn3)C[C@@H]2c2ccccc2)cc(C(F)(F)F)n1 [Example 605, 2-methoxy-N-{(3R,4S)-1-[(1-methyl-1H-imidazol-4-yl)sulfonyl]-4-phenylpyrrolidin-3-yl} -6-(trifluoromethyl)pyrimidin-4-amine]	≤ 1 µM
Cn1cnc(S(=O)(=O)N2C[C@H](Nc3cc(Cl)ncn3)[C@@H](c3ccccc3)C2)c1 [Example 606, 6-chloro-N-{(3R,4S)-1-[(1-methyl-1H-imidazol-4-yl)sulfonyl]-4-phenylpyrrolidin-3-yl}pyrimidin-4-amine]	≤ 0.1 µM
CC(C)c1cc(N[C@H]2CN(S(=O)(=O)c3cn(C)cn3)C[C@@H]2c2ccc(F)cc2)ncn1 [Example 614, N-{(3R,4S)-4-(4-fluorophenyl)-1-[(1-methyl-1H-imidazol-4-yl)sulfonyl]pyrrolidin-3-yl}-6-(propan-2-yl)pyrimidin-4-amine]	≤ 1 µM
Cc1nc(N[C@H]2CN(S(=O)(=O)c3cn(C)cn3)C[C@@H]2c2ccc(F)cc2)cc(C(F)(F)F)n1 [Example 615, N-{(3R,4S)-4-(4-fluorophenyl)-1-[(1-methyl-1H-imidazol-4-yl)sulfonyl]pyrrolidin-3-yl}-2-methyl-6-(trifluoromethyl)pyrimidin-4-amine]	≤ 1 µM
CCCc1cc(N[C@H]2CN(S(=O)(=O)c3cn(C)cn3)C[C@@H]2c2ccc(F)cc2)ncn1 [Example 616, N-{(3R,4S)-4-(4-fluorophenyl)-1-[(1-methyl-1H-imidazol-4-yl)sulfonyl]pyrrolidin-3-yl}-6-propylpyrimidin-4-amine]	≤ 1 µM
CCOc1cc(N[C@H]2CN(S(=O)(=O)c3cn(C)cn3)C[C@@H]2c2ccccc2)ncn1 [Example 620, 6-ethoxy-N-{(3R,4S)-1-[(1-methyl-1H-imidazol-4-yl)sulfonyl]-4-phenylpyrrolidin-3-yl}pyrimidin-4-amine]	≤ 1 µM
CC(C)COc1cc(N[C@H]2CN(S(=O)(=O)c3cn(C)cn3)C[C@@H]2c2ccccc2)ncn1 [Example 624, N-{(3R,4S)-1-[(1-methyl-1H-imidazol-4-yl)sulfonyl]-4-phenylpyrrolidin-3-yl}-6-(2-methylpropoxy)pyrimidin-4-amine]	≤ 1 µM

Continued, values first:

Ki	SMILES
≤ 10 µM	Cn1cnc(S(=O)(=O)N2C[C@@H](CNCC3CC3)[C@H](c3ccc(F)cc3)C2)c1 [Example 607, 1-cyclopropyl-N-({(3R,4R)-4-(4-fluorophenyl)-1-[(1-methyl-1H-imidazol-4-yl)sulfonyl]pyrrolidin-3-yl}methyl)methanamine]
≤ 10 µM	CCOCCN[C@H]1CN(S(=O)(=O)c2cn(C)cn2)C[C@@H]1c1ccccc1 [Example 608, (3R,4S)-N-(2-ethoxyethyl)-1-[(1-methyl-1H-imidazol-4-yl)sulfonyl]-4-phenylpyrrolidin-3-amine]
≤ 1 µM	CCCOCCN[C@H]1CN(S(=O)(=O)c2cn(C)cn2)C[C@@H]1c1ccccc1 [Example 609, (3R,4S)-1-[(1-methyl-1H-imidazol-4-yl)sulfonyl]-4-phenyl-N-(2-propoxyethyl)pyrrolidin-3-amine]
≤ 10 µM	Cn1cnc(S(=O)(=O)N2CC(Nc3ccc(F)c(F)c3)C(C3CCCO3)C2)c1 (centres unmarked) [Example 610, N-(3,4-difluorophenyl)-1-[(1-methyl-1H-imidazol-4-yl)sulfonyl]-4-[-tetrahydrofuran-2-yl]pyrrolidin-3-amine]
≤ 1 µM	Cn1cnc(S(=O)(=O)N2C[C@H](Nc3cc(C4CC4)ncn3)[C@@H](c3ccccc3)C2)c1 [Example 612, 6-cyclopropyl-N-{(3R,4S)-1-[(1-methyl-1H-imidazol-4-yl)sulfonyl]-4-phenylpyrrolidin-3-yl}pyrimidin-4-amine]
≤ 1 µM	CCc1cc(N[C@H]2CN(S(=O)(=O)c3cn(C)cn3)C[C@@H]2c2ccc(F)cc2)ncn1 [Example 613, 6-ethyl-N-{(3R,4S)-4-(4-fluorophenyl)-1-[(1-methyl-1H-imidazol-4-yl)sulfonyl]pyrrolidin-3-yl}pyrimidin-4-amine]
≤ 0.01 µM	Cn1cnc(S(=O)(=O)N2C[C@H](Nc3cc(C(F)(F)F)c(Cl)cn3)[C@@H](c3ccc(F)cc3)C2)c1 [Example 617, 5-chloro-N-{(3R,4S)-4-(4-fluorophenyl)-1-[(1-methyl-1H-imidazol-4-yl)sulfonyl]pyrrolidin-3-yl}-4-(trifluoromethyl)pyridin-2-amine]
≤ 1 µM	Cn1cnc(S(=O)(=O)N2C[C@@H](Nc3ccc(Cl)c(C(F)(F)F)c3)[C@H](C3CCCO3)C2)c1 (stereo partly drawn) [Example 618, (3S,4R)-N-[4-chloro-3-(trifluoromethyl)phenyl]-1-[(1-methyl-1H-imidazol-4-yl)sulfonyl]-4-(tetrahydrofuran-2-yl)pyrrolidin-3-amine]
≤ 1 µM	Cn1cnc(S(=O)(=O)N2C[C@H](Nc3ccc(Cl)c(C(F)(F)F)c3)[C@@H](C3CCCO3)C2)c1 (stereo partly drawn) [Example 619, (3R,4S)-N-[4-chloro-3-(trifluoromethyl)phenyl]-1-[(1-methyl-1H-imidazol-4-yl)sulfonyl]-4-(tetrahydrofuran-2-yl)pyrrolidin-3-amine]
≤ 10 µM	COc1cc(N[C@H]2CN(S(=O)(=O)c3cn(C)cn3)C[C@@H]2c2ccccc2)ncn1 [Example 621, 6-methoxy-N-{(3R,4S)-1-[(1-methyl-1H-imidazol-4-yl)sulfonyl]-4-phenylpyrrolidin-3-yl}pyrimidin-4-amine]
